Patent US10457666B2, “Stable crystal form of tipiracil hydrochloride and crystallization method for the same” (TAIHO PHARMACEUTICAL CO., LTD., priority 2013, dated 2019)
“And” between values parts separate entries of the source, which are not always exact repeats. Identical values can stand only once.

Key:
[1] = Stability test (storage stability after preservation); format: physicochemical; details: preservation at 40° C. for six months; for change in powder X-ray diffraction pattern after preservation (storage stability): hydrochloride
Protocol: Crystal I, Crystal III, and Crystal II of tipiracil hydrochloride obtained in accordance with Example 1, Example 2, and Reference Example 1 respectively were tested for storage stability after preservation at a temperature of 40° C. for six months.

[2] = Test for measurement of electric charge amount by air transfer; format: physicochemical; details: for Amount of electric charge per unit mass, average value: average of 3 measurements; for Amount of electric charge per unit mass, average value / Amount of electric charge / Amount of electric charge per unit mass: air transfer 130 L/min, SUS electrifying tube, hydrochloride; for Amount of electric charge / Amount of electric charge per unit mass: individual measurements No. 1-3; for polarity of charge: relative to SUS membrane
Protocol: Electric charge amounts of Crystal I and Crystal III obtained in accordance with Example 1 and Example 2 respectively were measured by air transfer. Crystal I or Crystal III was put in a powder supply part of an electrifying tube (made of SUS, 24.6×500 mm), and was left for 10 minutes. The sample was transferred by air at a flow rate of 130 L/min and the electric charge amount was calculated from the current value at that time obtained from the electrifying tube. ? =−∫0^tIdt Q: Amount of electric charge [C] I: Current generated during measurement [A] t: Measuring time […]
The measurement was performed 5 times, of which 3 times that gave stable results were adopted. The average of the values of the 3 times was regarded as the measured value.

amounts of analogous substances after preservation [1]	change in powder X-ray diffraction pattern after preservation (storage stability) [1]	Amount of electric charge per unit mass, average value [2]	charge relative to Crystal I ([2]; comparison of Table 2 and Table 3)	polarity of charge [2]	Structure (SMILES)	Amount of electric charge [2]	Amount of electric charge per unit mass [2]
small and not increased	no change	3.5 × 10^−7 C/g	three times as much charge as Crystal I	(positively-charged	Cl.N=C1CCCN1Cc1[nH]c(=O)[nH]c(=O)c1Cl [Crystal III, 5-chloro-6-(2-iminopyrrolidin-1-yl)methyl-2,4(1H,3H)-pyrimidinedione hydrochloride]	2.0 × 10^−7 C and 2.1 × 10^−7 C and 1.8 × 10^−7 C	3.2 × 10^−7 C/g (2×) and 4.2 × 10^−7 C/g
small and not increased	no change	1.0 × 10^−7 C/g		(positively-charged	Cl.N=C1CCCN1Cc1[nH]c(=O)[nH]c(=O)c1Cl [Crystal I, 5-chloro-6-(2-iminopyrrolidin-1-yl)methyl-2,4(1H,3H)-pyrimidinedione hydrochloride]	5.3 × 10^−8 C and 5.0 × 10^−8 C	1.1 × 10^−7 C/g and 9.7 × 10^−8 C/g and 9.8 × 10^−8 C/g
	not the same				Cl.N=C1CCCN1Cc1[nH]c(=O)[nH]c(=O)c1Cl [Crystal II, 5-chloro-6-(2-iminopyrrolidin-1-yl)methyl-2,4(1H,3H)-pyrimidinedione hydrochloride]		
